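Dose response: 5 concentrations. Exposure: 48 h. Format: 96-well plates. Endpoint: linear interpolation; highest concentration if not reached. TGI denotes the concentration required for complete inhibition of growth.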
How the values were obtained:
Assay in all cases: NCI tumour cell line growth inhibition, 48 h
UACC-62 melanoma = test system: UACC-62 melanoma
A549 NSCLC = test system: A549 NSCLC
SNB-19 CNS = test system: SNB-19 CNS
SK-MEL-28 melanoma = test system: SK-MEL-28 melanoma
HT29 colon = test system: HT29 colon
HCT-116 colon = test system: HCT-116 colon
TK-10 renal = test system: TK-10 renal
OVCAR-4 ovarian = test system: OVCAR-4 ovarian

Measured: TGI

COc1ccc(-n2cnnc2-c2nsc3ccccc23)cc1
> 100 µM: all assays above
